Source: US20120058200A1, “PROCESS FOR THE PREPARATION OF LANTHANUM CARBONATE DIHYDRATE” (Natco Pharma Limited, priority 2009, published 2012)

Legend:
[1] = Phosphate binding studies of various lanthanum carbonate hydrates; settings: for % Phosphate removed: two-fold molar excess of lanthanum carbonate hydrate over phosphate; for Peak phosphate binding: in about 7 times (so in the source)
Experimental: To study the phosphate binding activity of lanthanum carbonate dihdyrate, other hydrates of lanthanum carbonate (monohydrate, tetrahydrate and hexahydrate) were prepared. • a) A stock solution of standard phosphate was prepared by dissolving 13.75 g of Na2HPO4 in 1 L deionised water after adjusting the pH to 3.0 with […]. • b) Above stock solution (5 ml) was diluted with 90 ml water adjusted the pH to 3.0 with conc. HCl and made up to 100 ml with water. • c) A two-fold molar excess of Lanthanum carbonate hydrate over phosphate was weighed accurately according to the molecular weight and added to solution b). • d) Sampling was carried out at different time intervals 1, 3, 5, 7, and 10 min. […] Peak phosphate binding exceeding 99% is achieved with the dihydrate in about 7 times whereas only 81% is achieved with the tetrahydrate.

[2] = room temperature

O.O.O=C([O-])[O-].O=C([O-])[O-].O=C([O-])[O-].[La+3].[La+3] [Dihydrate, lanthanum carbonate dihydrate]
% Phosphate removed ([1]; 1 min, pH 3.0): 94.00% | % Phosphate removed ([1]; 3 min, pH 3.0): 93.00% | % Phosphate removed ([1]; 5 min, pH 3.0): 93.00% | % Phosphate removed ([1]; 7 min, pH 3.0): 99.45% | % Phosphate removed ([1]; 10 min, pH 3.0): 99.17% | Phosphate binding speed ([1]; at all points (1-10 min), pH 3.0): relatively very fast | Peak phosphate binding ([1]; pH 3.0): exceeding 99% | Performance in phosphate binding studies ([1]; over standard lanthanum carbonate tetrahydrate): improved performance | Stability [2]: stable

O.O.O.O.O.O.O=C([O-])[O-].O=C([O-])[O-].O=C([O-])[O-].[La+3].[La+3] [Hexahydrate]
% Phosphate removed ([1]; 1 min, pH 3.0): 57.10% | % Phosphate removed ([1]; 3 min, pH 3.0): 60.10% | % Phosphate removed ([1]; 5 min, pH 3.0): 79.73% | % Phosphate removed ([1]; 7 min, pH 3.0): 76.12% | % Phosphate removed ([1]; 10 min, pH 3.0): 81.15%

O.O=C([O-])[O-].O=C([O-])[O-].O=C([O-])[O-].[La+3].[La+3] [Monohydrate]
% Phosphate removed ([1]; 1 min, pH 3.0): 82.73% | % Phosphate removed ([1]; 3 min, pH 3.0): 90.05% | % Phosphate removed ([1]; 5 min, pH 3.0): 87.10% | % Phosphate removed ([1]; 7 min, pH 3.0): 91.72% | % Phosphate removed ([1]; 10 min, pH 3.0): 98.30%

O.O.O.O.O=C([O-])[O-].O=C([O-])[O-].O=C([O-])[O-].[La+3].[La+3] [Tetrahydrate, lanthanum carbonate tetrahydrate]
% Phosphate removed ([1]; 1 min, pH 3.0): 64.05% | % Phosphate removed ([1]; 3 min, pH 3.0): 73.64% | % Phosphate removed ([1]; 5 min, pH 3.0): 87.20% | % Phosphate removed ([1]; 7 min, pH 3.0): 81.21% | % Phosphate removed ([1]; 10 min, pH 3.0): 82.80% | Peak phosphate binding ([1]; pH 3.0): 81%
